Test results published in ChEMBL document CHEMBL1131684, “Preparation of amino acid conjugates of betulinic acid with activity against human melanoma” (Bioorg Med Chem Lett, 1999).
Values after ≈ are worked out from the molar mass of the structure shown.

Legend:
KB = experiment: In vitro cytotoxicity (antitumor activity) against human epidermoid carcinoma of mouth cell line (KB); format: functional; conditions: read-out: ED50 (the source's name)
SK-MEL-2 = experiment: In vitro cytotoxicity (antitumor activity) against human melanoma (MEL-2) cell lines; format: functional; conditions: read-out: ED50 (the source's name)
[1] = Water solubility of the compound; format: ADME; conditions: buffer

Compound	EC50 (KB)	EC50 (SK-MEL-2)	S [1]
C=C(C)[C@@H]1CC[C@]2(C(=O)N[C@H](C(=O)OC)[C@@H](C)CC)CC[C@]3(C)[C@H](CC[C@@H]4[C@@]5(C)CC[C@H](O)C(C)(C)[C@@H]5CC[C@]43C)[C@@H]12	> 20 mg/L	> 20 mg/L	
C=C(C)[C@@H]1CC[C@]2(C(=O)N[C@H](C(=O)O)[C@@H](C)CC)CC[C@]3(C)[C@H](CC[C@@H]4[C@@]5(C)CC[C@H](O)C(C)(C)[C@@H]5CC[C@]43C)[C@@H]12	> 20 mg/L	> 20 mg/L	
C=C(C)[C@@H]1CC[C@]2(C(=O)N[C@@H](Cc3ccccc3)C(=O)OC)CC[C@]3(C)[C@H](CC[C@@H]4[C@@]5(C)CC[C@H](O)C(C)(C)[C@@H]5CC[C@]43C)[C@@H]12	> 20 mg/L	9 mg/L (≈ 14.6 µM)	5 Dilution factor
C=C(C)[C@@H]1CC[C@]2(C(=O)N[C@@H](CC(=O)OC)C(=O)OC)CC[C@]3(C)[C@H](CC[C@@H]4[C@@]5(C)CC[C@H](O)C(C)(C)[C@@H]5CC[C@]43C)[C@@H]12	> 20 mg/L	> 20 mg/L	
C=C(C)[C@@H]1CC[C@]2(C(=O)N[C@@H](CCC(=O)O)C(=O)O)CC[C@]3(C)[C@H](CC[C@@H]4[C@@]5(C)CC[C@H](O)C(C)(C)[C@@H]5CC[C@]43C)[C@@H]12	> 20 mg/L	> 20 mg/L	
C=C(C)[C@@H]1CC[C@]2(C(=O)NCC(=O)OC)CC[C@]3(C)[C@H](CC[C@@H]4[C@@]5(C)CC[C@H](O)C(C)(C)[C@@H]5CC[C@]43C)[C@@H]12	> 20 mg/L	10.2 mg/L (≈ 19.3 µM)	50 Dilution factor
C=C(C)[C@@H]1CC[C@]2(C(=O)N[C@@H](Cc3c[nH]c4ccccc34)C(=O)OC)CC[C@]3(C)[C@H](CC[C@@H]4[C@@]5(C)CC[C@H](O)C(C)(C)[C@@H]5CC[C@]43C)[C@@H]12	> 20 mg/L	> 20 mg/L	
C=C(C)[C@@H]1CC[C@]2(C(=O)N3CCC[C@H]3C(=O)O)CC[C@]3(C)[C@H](CC[C@@H]4[C@@]5(C)CC[C@H](O)C(C)(C)[C@@H]5CC[C@]43C)[C@@H]12	> 20 mg/L	13.1 mg/L (≈ 23.7 µM)	20 Dilution factor
C=C(C)[C@@H]1CC[C@]2(C(=O)N[C@H](C(=O)O)C(C)C)CC[C@]3(C)[C@H](CC[C@@H]4[C@@]5(C)CC[C@H](O)C(C)(C)[C@@H]5CC[C@]43C)[C@@H]12	9 mg/L (≈ 16.2 µM)	9 mg/L (≈ 16.2 µM)	20 Dilution factor
C=C(C)[C@@H]1CC[C@]2(C(=O)N[C@@H](Cc3ccc(O)cc3)C(=O)OC)CC[C@]3(C)[C@H](CC[C@@H]4[C@@]5(C)CC[C@H](O)C(C)(C)[C@@H]5CC[C@]43C)[C@@H]12	> 20 mg/L	> 20 mg/L	
C=C(C)[C@@H]1CC[C@]2(C(=O)N[C@@H](CCSC)C(=O)O)CC[C@]3(C)[C@H](CC[C@@H]4[C@@]5(C)CC[C@H](O)C(C)(C)[C@@H]5CC[C@]43C)[C@@H]12	> 20 mg/L	9 mg/L (≈ 15.3 µM)	5 Dilution factor
C=C(C)[C@@H]1CC[C@]2(C(=O)N[C@@H](CC(=O)O)C(=O)O)CC[C@]3(C)[C@H](CC[C@@H]4[C@@]5(C)CC[C@H](O)C(C)(C)[C@@H]5CC[C@]43C)[C@@H]12	> 20 mg/L	> 20 mg/L	
C=C(C)[C@@H]1CC[C@]2(C(=O)N[C@@H](CC(C)C)C(=O)OC)CC[C@]3(C)[C@H](CC[C@@H]4[C@@]5(C)CC[C@H](O)C(C)(C)[C@@H]5CC[C@]43C)[C@@H]12	> 20 mg/L	6.2 mg/L (≈ 10.6 µM)	5 Dilution factor
C=C(C)[C@@H]1CC[C@]2(C(=O)N[C@@H](CCSC)C(=O)OC)CC[C@]3(C)[C@H](CC[C@@H]4[C@@]5(C)CC[C@H](O)C(C)(C)[C@@H]5CC[C@]43C)[C@@H]12	> 20 mg/L	12.8 mg/L (≈ 21.3 µM)	5 Dilution factor
C=C(C)[C@@H]1CC[C@]2(C(=O)N[C@@H](CCC(=O)OC)C(=O)OC)CC[C@]3(C)[C@H](CC[C@@H]4[C@@]5(C)CC[C@H](O)C(C)(C)[C@@H]5CC[C@]43C)[C@@H]12	> 20 mg/L	15.3 mg/L (≈ 24.9 µM)	20 Dilution factor
C=C(C)[C@@H]1CC[C@]2(C(=O)N[C@@H](Cc3ccccc3)C(=O)O)CC[C@]3(C)[C@H](CC[C@@H]4[C@@]5(C)CC[C@H](O)C(C)(C)[C@@H]5CC[C@]43C)[C@@H]12	> 20 mg/L	> 20 mg/L	
C=C(C)[C@@H]1CC[C@]2(C(=O)N3CCC[C@H]3C(=O)OC)CC[C@]3(C)[C@H](CC[C@@H]4[C@@]5(C)CC[C@H](O)C(C)(C)[C@@H]5CC[C@]43C)[C@@H]12	> 20 mg/L	> 20 mg/L	
C=C(C)[C@@H]1CC[C@]2(C(=O)N[C@@H](C)C(=O)O)CC[C@]3(C)[C@H](CC[C@@H]4[C@@]5(C)CC[C@H](O)C(C)(C)[C@@H]5CC[C@]43C)[C@@H]12	4.6 mg/L (≈ 8.72 µM)	1.5 mg/L (≈ 2.84 µM)	50 Dilution factor
C=C(C)[C@@H]1CC[C@]2(C(=O)N[C@@H](Cc3ccc(O)cc3)C(=O)O)CC[C@]3(C)[C@H](CC[C@@H]4[C@@]5(C)CC[C@H](O)C(C)(C)[C@@H]5CC[C@]43C)[C@@H]12	> 20 mg/L	> 20 mg/L	
C=C(C)[C@@H]1CC[C@]2(C(=O)N[C@H](C(=O)OC)C(C)C)CC[C@]3(C)[C@H](CC[C@@H]4[C@@]5(C)CC[C@H](O)C(C)(C)[C@@H]5CC[C@]43C)[C@@H]12	> 20 mg/L	2.1 mg/L (≈ 3.69 µM)	5 Dilution factor
C=C(C)[C@@H]1CC[C@]2(C(=O)N[C@@H](Cc3c[nH]c4ccccc34)C(=O)O)CC[C@]3(C)[C@H](CC[C@@H]4[C@@]5(C)CC[C@H](O)C(C)(C)[C@@H]5CC[C@]43C)[C@@H]12	> 20 mg/L	8.6 mg/L (≈ 13.4 µM)	10 Dilution factor
C=C(C)[C@@H]1CC[C@]2(C(=O)N[C@@H](CC(C)C)C(=O)O)CC[C@]3(C)[C@H](CC[C@@H]4[C@@]5(C)CC[C@H](O)C(C)(C)[C@@H]5CC[C@]43C)[C@@H]12	> 20 mg/L	9 mg/L (≈ 15.8 µM)	10 Dilution factor
C=C(C)[C@@H]1CC[C@]2(C(=O)N[C@@H](C)C(=O)OC)CC[C@]3(C)[C@H](CC[C@@H]4[C@@]5(C)CC[C@H](O)C(C)(C)[C@@H]5CC[C@]43C)[C@@H]12	> 20 mg/L	3.5 mg/L (≈ 6.46 µM)	30 Dilution factor
C=C(C)[C@@H]1CC[C@]2(C(=O)NCC(=O)O)CC[C@]3(C)[C@H](CC[C@@H]4[C@@]5(C)CC[C@H](O)C(C)(C)[C@@H]5CC[C@]43C)[C@@H]12	> 20 mg/L	4.2 mg/L (≈ 8.17 µM)	100 Dilution factor
C=C(C)[C@@H]1CC[C@]2(C(=O)O)CC[C@]3(C)[C@H](CC[C@@H]4[C@@]5(C)CC[C@H](O)C(C)(C)[C@@H]5CC[C@]43C)[C@@H]12 [BETULINIC ACID]	> 20 mg/L	4.2 mg/L (≈ 9.2 µM)	< 5 Dilution factor
